The values below come from patent publication US5968526A, “T cell epitopes of the major allergens from Dermatophagoides (house dust mite)” (Immulogic Pharamaceutical Corporation, priority 1995, dated 1999).

Common to all, as to type: cell-based, human
Test [1] concerns T cell lines primed in vitro to Der f II. The test is described as follows: secondary proliferation of Der f II-primed T cell lines (Examples IX, X, XI). The conditions noted are these: for T cell reactivity: overlapping Der f II peptides, FIG. 10; for T cell reactivity / T cell response to Der p II peptides: 10 positive experiments; for T cell response: patient 384, recombinant Der f II primed, data not shown; for T cell response to Der p II peptides: Der f II primed, FIG. 11. The protocol: Experiments similar to those of Example V were performed to determine the T cell-reactive areas of the Der f II protein. For example, PBMC from house dust mite-allergic patient 384 were stimulated in vitro with purified recombinant Der f II and the T cell line was then challenged in the presence of x-irradiated (25,000 Rads) autologous Epstein-Barr virus transformed B cells as antigen presenting cells with various overlapping […]. The results of this proliferation assay indicate that T cells from this particular patient respond well to peptides DF II-1, DF II-2, DF II-3.1, DF II-4.5, DF II-15, DF II-16, and DF I-19.1 (data not shown).
The above procedure was followed with 10 patients, except in individual cases, T cell lines were primed by stimulating the patient PBMC with 20 μg/ml or 3 μg/ml purified native Der f II, and were assayed in the presence of x-irradiated (3500 Rads) autologous PBMC as antigen-presentingcells.
A study similar to that described in Example VII was carried out to determine the T cell cross-reactivity of the Der p II and Der f II proteins. T cells primed with the Der f II protein were challenged with various Der f II peptides and a set of substantially matching Der p II peptides. […]

Test [2] relates to T cell lines primed in vitro to Der p II. The test is described as follows: secondary proliferation of Der p II-primed T cell lines (Examples VIII, X, XI). The conditions noted are these: for T cell response to Der f II peptides: Der p II primed, FIG. 12; for T cell response to Der f II peptides / T cell reactivity: 26 positive experiments; for T cell reactivity: overlapping Der p II peptides, FIG. 9; for T cell response: patient 348, native Der p II primed, data not shown. Summed up:
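PBMC from house dust mite-allergic patients primed in vitro with native or recombinant Der p II at 20 μg/ml (or recombinant at 3 μg/ml), with x-irradiated (3500 Rads) autologous PBMC as antigen-presenting cells. Lines then challenged with Der p II-derived peptides; proliferation expressed as S.I., ranked sum scoring top three responses 3, 2, 1.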

The test system of test [3] is T cell cultures reactive with Der p I from house dust mite-allergic subjects. The test is described as follows: secondary T cell proliferation assay, Group I (Der p I) overlapping and candidate/unique peptides; percent of T cell reactivity. To be noted: patient 1733; highest S.I. ≥2.0 recorded. The text has this:
To determine whether a peptide (candidate peptide) or a combination of candidate peptides are likely to comprise a sufficient percentage of the T cell reactivity of house dust mite protein allergens, to induce T cell nonresponsiveness in a substantial percentage of a population of individuals sensitive to house dust mite allergen, an algorithm can be used. In accordance with one such algorithm, a set of overlapping peptides is produced by systematically dividing the protein allergen(s) of interest into al least two overlapping peptide regions of desired lengths (e.g., of about 12-30 amino acid residues in length, preferably not longer than about 25 amino acid residues in length with about 5-15 amino acid residues of overlap). This division into peptide regions can be arbitrary, can be made according to an algorithm, or can be wholly or partially based on regions of house dust mite Group I and/or Group II protein allergens known to comprise at least one T cell epitope. Preferably, at least 50% of the entire house dust mite protein allergen sequence and more preferably, the entire house dust mite protein allergen sequence is divided into two or more peptides. A human T cell stimulation index is determined for each of the peptides in an in vitro T cell proliferation assay as described herein for each individual tested in a population of individuals sensitive to the protein antigen. For example both WO93/08279 and WO94/24281 disclose T cell studies with overlapping peptides derived from Der p I, Der p II, Der f I and Der f II. A candidate peptide or combination of candidate peptides is selected based, at least in part, on the mean human T cell stimulation index of the candidate peptide in the set of peptides tested and the positivity index of the candidate peptide in the set of peptides tested (see, FIGS. 3 and 4). The human T cell stimulation index for the candidate peptide(s) is summed. For each individual, the human T cell stimulation index for the candidate peptide(s) is divided by the sum of the human T cells stimulation indices of the remaining peptides in the set of peptides tested to determine a percent of T cell reactivity as shown below:
Alternatively, the presence of T cell epitopes in the candidate peptide dependent on amino acids residues in an overlapping peptide located at either the N-terminus or C-terminus of the candidate peptide in the amino acid sequence of the protein antigen, but which epitopes are not present in the candidate peptide can be considered in calculating the percent of T cell reactivity in the candidate peptide by use of the following formula: [formula]
In this formula, "NT flanking peptide" refers to a peptide which comprises amino acid residues which overlap with amino acid residues located at the N-terminus of the candidate peptide in the amino acid sequence of the protein antigen from which the peptide is derived; "CT flanking peptide" refers to a peptide which comprises amino acid residues which overlap with amino acid residues located a the C-terminus of the candidate peptide in the amino acid sequence of the protein antigen from which the peptide is derived. In this calculation stimulation indices for the candidate peptide, the N-terminal flanking peptide and the C-terminal flanking peptide are added and divided by the sum total of the stimulation indices for the entire set of overlapping peptides obtain a percent of T cell reactivity for the candidate peptide. If a combination of two or more candidate peptides is selected each of which contains amino acid residues which overlap, this calculation cannot be used to determine a percent of T cell reactivity for each candidate peptide separately. However, a total percent of T cell reactivity for the combination of candidate peptides can be obtained. In this situation, the stimulation indices for all of the candidate peptides which overlap is included in the calculation. […]

Test [4] deals with T cell lines primed in vitro to Der p I. The test is described as follows: secondary proliferation of Der p I-primed T cell lines (Examples V, VII, XI). To be noted: overlapping Der p I peptides; 33 positive experiments. Summed up:
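PBMC were primed with native or recombinant Der p I (10 or 20 μg/ml) for 7 days, then expanded with IL-2 and IL-4. Resting T cells (2×10^4) were cultured 3 days with irradiated autologous EBV-B cells or PBMC and titrated protein or peptides, then pulsed 16 h with 1 μCi ³H-thymidine. S.I. was peak-response CPM over medium-only CPM, with S.I. ≥2.0 scored positive.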

Test [5] relates to PBMC from mite-allergic patient. The test is described as follows: primary T cell (PBMC) proliferation, mite-allergic patient, tritiated thymidine. The conditions noted are these: medium 1071 ± 30. The procedure:
Peripheral blood mononuclear cells (PBMC) were purified by Ficoll-Hypaque centrifugation of a peripheral blood specimen from mite-allergic patient and were assayed for proliferation in response to various antigens, i.e., affinity-purified Der p I, affinity purified Der p II, various Der p I and Der p II peptides. For assay, 5×10^4 PBMC were cultured in triplicate microwells for 7 days at 37° C. in the presence of various concentrations of antigen in 200 μl RPMI-1640 containing 5% human AB serum. Each well then received 1 μCi tritiated thymidine for 16 hours. The counts incorporated were collected onto glass fiber filters and processed for liquid scintillation counting. […] The CPM +/- standard deviation are shown. The stimulation index of each response (S.I.) is the ratio of the ^3 H-thymidine CPM incorporated by the cells in response to antigen divided by the ^3 H-thymidine CPM incorporated by cells in medium only. […] Thus, these peptides contain Der p I or Der p II T cell epitopes recognized by T cells from this particular allergic patient.

The test system of test [6] is T cell lines primed in vitro with Der p II. The test is described as follows: T cell proliferation with fine map and modified Group II peptides (Example XIV). The conditions noted are these: FIGS. 32a-b. The procedure: Long term T cell lines were established by stimulation of 2×10^6 PBL/ml in bulk cultures of complete medium (RPMI-1640, 2 mM L-glutamine, 100 U/ml penicillin/streptomycin, 5×10^-5 M 2-mercaptoethanol, and 10 mM HEPES supplemented with 5% heat inactivated human AB serum) with 30 μg/ml of purified native Der p I or Der p II for 5-6 days at 37° C. in a humidified 5% CO2 incubator to select for house dust mite protein allergen reactive T cells. This amount of priming antigen was determined to be optimal for the activation of T cells from house dust mite allergic patients. Viable cells were purified by LSM centrifugation and cultured in complete medium supplemented with 5 units recombinant human IL-2/ml and 5 units recombinant human IL-4/ml for up to three weeks until the cells no longer responded to lymphokines and were considered "rested". The ability of the T cells to proliferate to selected peptides, purified Der p I or Der p II, or positive (PHA) controls or negative controls (medium only) was then assessed. For assay, 2×10^4 rested cells were restimulated in the presence of 2×10^4 autologous Epstein-Barr virus (EBV)-transformed B cells (prepared as described below) (gamma-irradiated with 25,000 RADS) or with 5×10^4 autologous PBMs (gamma-irradiated with 3500 RADS), with 2-50 μg/ml of purified native Der p I or Der p II in a volume of 200 μl complete medium in duplicate or triplicate wells in 96-well round bottom plates for 3 days. Each well then received 1 μCi tritiated thymidine for 16-20 hours. The counts incorporated were collected onto glass fiber filter mats and processed for liquid scintillation counting. […] The titrations were used to optimize the dose of peptides in T cell assays.
The maximum response in a titration of each peptide is expressed as the stimulation index (S.I.). The S.I. is the counts per minute (CPM) incorporated by cells in response to peptide, divided by the CPM incorporated by cells in medium only. […] The positive results were used in calculating mean stimulation indices for each peptide for the individual patient tested.
The above procedure was followed with 18 patients in the studies using peptides derived from Der p I and Der f I (FIGS. 31a-b), and 21 patients in the studies with Der p II peptides (FIGS. 32a-b). Individual patient results were used in calculating the mean S.I. for each peptide if the patient responded to the Der p I or Der p II protein at an S.I. of 2.0 or greater and the patient responded to at least one peptide derived from a house dust mite allergen at an S.I. f 2.0 or greater. A summary of positive experiments from the patients tested is shown in FIGS. 32a and 32b and FIGS. 33a and 33b. The bars represent the positivity index. […] In parenthesis above each bar are the mean stimulation indices for each peptide or protein for the group of patients tested.
Autologous EBV-transformed cell lines were γ-irradiated with 25,000 Rad and used as antigen presenting cells in secondary proliferation assays and secondary bulk stimulations. These EBV-transformed cell lines were made by incubating 5×10^6 PBL with 1 ml of B-59/8 Marmoset cell line (ATCC CRL1612, American Type Culture Collection, Rockville, Md.) conditioned medium in the presence of 1 μg/ml phorbol 12-myristate 13-acetate (PMA) at 37° C. for 60 minutes in 12×75 mm polypropylene round-bottom Falcon snap cap tubes (Becton Dickinson Labware, Lincoln Park, N.J.). These cells were then diluted to 1.25×10^6 cells/ml in RPMI-1640 as described above except supplemented with 10% heat-inactivated fetal bovine serum and cultured in 200 μl aliquots in flat bottom culture plates until visible colonies were detected. They were then transferred to larger wells until the cell lines were established.

Regarding “DF II-4.5: Der f II peptide (TLEALFDANQNTKTAKIEIKASLDG)”, in test [1], the T cell reactivity result is reported as “significant areas of T cell reactivity” and the T cell response result was “respond well”. The “T cell response to Der f II peptides” value in test [2] was “respond significantly”.
As to “DF II-15: Der f II peptide (KIEIKASLDGLEIDVPGIDTNACHFMK)”, in test [1], the T cell reactivity result is “significant areas of T cell reactivity” and the T cell response result is “respond well”. Besides, the “T cell response to Der f II peptides” value in test [2] was “respond significantly”.
For the substance “DF II-17: Der f II peptide (CPLVKGQQYDAKYTWNVPKIAPKSENV)”, in test [1], the T cell reactivity result is “significant areas of T cell reactivity”. In test [2], the “T cell response to Der f II peptides” value is “respond significantly”.
In the same order, the values of “DF II-19.1: Der f II peptide (VVTVKLVGDNGVLACAIATHAKIRD)” are “significant areas of T cell reactivity” and “respond significantly”.
Regarding “DP I-6.1: Der p I peptide (YPPNANKIREALAQTHSAIAVIIG)”, the “T cell stimulation index (S.I.)” value in test [3] turned out to be 2.1. Moreover, the T cell reactivity result in test [4] was “significant regions of T cell reactivity”.
Take “DP I-17: Der p I peptide (GDNGYGYFAANIDLMMIEEYPYVVIL)”: the “T cell stimulation index (S.I.)” value in test [3] is given as 0.
For “DP II-1: Der p II peptide (DQVDVKDCANHEIKKVLVPG)”, in test [1], the “T cell response to Der p II peptides” value is on record as “respond significantly”. Besides, in test [2], the T cell reactivity result was “significant T cell reactivity” and the T cell response entry is “responds well”.
“DP II-4: Der p II peptide (QLEAVFEANQNTKTAKIEIKASIDG)”: in test [1], the “T cell response to Der p II peptides” value was “respond significantly”. Besides, the “T-cell reactivity (DPII-22 series development)” value in test [2] (Der p II T-cell map and analogs) is “high T-cell reactivity”. In addition, the T cell reactivity entry in test [2] is on record as “significant T cell reactivity”. The “CPM ± S.D.” value in test [5] (10 μg/ml) turned out to be 2126 ± 25 CPM; in test [5] (30 μg/ml), 1979 ± 94 CPM; in test [5] (100 μg/ml), 2314 ± 116 CPM.
Turning to “DP II-7: Der p II peptide (CPLVKGQQYDIKYTWNVPKIAPKSENV)”, in test [1], the “T cell response to Der p II peptides” value is “respond significantly”. For the same substance, in test [2], the T cell reactivity result is “significant T cell reactivity” and the T cell response entry is listed as “responds well”.
Take “DP II-25: Der p II peptide (TVKVMGDDGVLACAIATHAKIRD)”: the “T cell response, Group II peptides” value in test [6] is recorded as “positive T cell studies”. The “stimulation index / response to selected Der p II peptides” value in test [1] (10 patients, FIG. 18a) is reported as “highest stimulation index”.
